Data set [1] relates to A549. Kind of data set: CCK-8 cell viability assay and IC50 measurement. As to conditions: Homo sapiens; for viability at 40 µM / inhibition at 40 µM: A549, 40 μM, 48 h; for viability at 40 µM: CCK-8, read-out: Cell viability (100%), 40 μM, 48 h, A549; for inhibition at 40 µM: read-out: inhibition rate. In kind it is cell-based, human. The method, then:
(§1) In order to investigate the anticancer activity of new synthetic 1,4-benzoxazinone-linked 1,2,3-triazole compounds, we chose several cancer cell lines, including A549 (lung), Huh7 (liver), MCF-7 (breast), HCT-116 (colon), and SKOV3 (ovary), and measured cell viability using the CCK-8 assay. Cells were exposed to 40 μM of the compounds for 48 h, and then cell viability was determined. […] In addition, we used the reference drug gefitinib as a positive control and measured its cell viability on different cell lines. […] We used BEAS-2B cells as a normal cell line to determine the toxic effects of these compounds on normal cells. […] Furthermore, we evaluated the IC50 of these compounds in A549.
(§2) Human cancer cell lines A549, Huh7, MCF-7, HCT-116, and SKOV3 were obtained from ATCC. The cells were cultured in DMEM or RPMI 1640 medium supplemented with 10% FBS and 1% penicillin/streptomycin and incubated at 37°C in a CO2-humidified atmosphere.
(§3) Cells were cultured in DMEM or RPMI 1640 medium containing 10% FBS and 1% penicillin/streptomycin at 37°C and 5% CO2. The CCK-8 assay was performed on several human cancer cell lines, including A549, Huh7, MCF-7, HCT-116, and SKOV3, according to the manufacturer’s instructions. Cells were plated at a density of 5 × 10^3 cells per well in a 96-well plate. After 24 h of incubation, cells were treated with 40 μM compounds for 48 h. Cell viability was assessed by adding 10 μL of CCK-8 reagent, dissolved in the cell culture medium, and incubating for 1 h. Absorbance was measured at 450 nm using a microplate reader. IC50 values were determined using a dose-response curve with six concentrations (0, 10, 20, 40, 80, and 160 μM), and IC50 values were calculated using GraphPad Prism software.
A general note: Formazan colour is commonly taken as a measure of viable cells.

Data set [2] deals with HCT-116. Kind of data set: CCK-8 cell viability assay. Particulars: Homo sapiens, HCT-116, 40 μM, 48 h, read-out: Cell viability (100%), 40 μM, 48 h, HCT-116. In kind it is cell-based. The procedure: as §1, §2, §3
For data set [3], the system named is Huh7. Kind of data set: CCK-8 cell viability assay. It counts as cell-based. As to conditions: Homo sapiens, Huh-7, Huh7, 40 μM, 48 h, read-out: Cell viability (100%), 40 μM, 48 h, Huh7. The procedure: as §1, §2, §3
The subject of data set [4] is MCF-7. Kind of data set: CCK-8 cell viability assay. In kind it is cell-based. As to conditions: Homo sapiens, MCF7, MCF-7, 40 μM, 48 h, read-out: Cell viability (100%), 40 μM, 48 h, MCF-7. The method, then: as §1, §2, §3
In data set [5] the test system is SKOV3. Kind of data set: CCK-8 cell viability assay. Particulars: Homo sapiens, SK-OV-3, SKOV3, 40 μM, 48 h, read-out: Cell viability (100%), 40 μM, 48 h, SKOV3. In kind it is cell-based. The procedure:
as §1, §2, §3

The nature of data set [6]: CCK-8 cell viability assay, normal cell line. It counts as cell-based. Particulars: human, BEAS-2B cells (normal cell line), BEAS-2B normal cell line, read-out: Cell viability (100%), 40 μM, 48 h, BEAS-2B. The method, then: as §1, §3
Where [7] appears, read: A549, 48 h, read-out: IC50 48 h.
Setting [8] is: A549, 72 h, read-out: IC50 72 h.

From paper PMC12202533, “Mechanistic Insights and Anti-cancer Activity of 2H-benzo[b][1,4]oxazin-3(4H)-one Linked 1,2,3-Triazoles in Human Cancer Cells” (Frontiers in Pharmacology, 2025) come the findings set out here.

The structures appear in SMILES notation. Like-named read-outs stand apart in the source and are kept apart here.

Take `Cc1cc(C)cc(Cn2cc(-c3cccc(C(=O)Nc4ccc5c(c4)NC(=O)CO5)c3)nn2)c1` [Compound 13b]: the viability (usually a read-out of living cells in per cent, often relative to untreated cells) at 40 µM stood at 114.5 ± 1.06% in data set [1]; 124 ± 4.48% in data set [2]; 108 ± 1.9% in data set [3]; 112 ± 2.33% in data set [4]; 115 ± 2.08% in data set [5]. Also, in data set [6], the viability at 48 h, 40 µM stood at 105.7 ± 0.38%.
As for `O=C1COc2ccc(NC(=O)c3cccc(-c4cn(Cc5ccc(F)c(Cl)c5)nn4)c3)cc2N1` [Compound 13f], the IC50 – broadly, the concentration that inhibits the measured activity by half – turned out to be 55.2 ± 1.56 µM in data set [1] (setting [7]) and 53.3 ± 6.64 µM in data set [1] (setting [8]). The viability at 40 µM in data set [1] amounted to 44.5 ± 3.23%; in data set [2], 68 ± 5.4%; in data set [3], 88.4 ± 1.3%; in data set [4] it was 85.5 ± 2.2%; in data set [5] it was 83.7 ± 1.74%. Further, the inhibition – broadly, the percentage by which the read-out fell short of the control – at 40 µM in data set [1] was over 50%. Besides, in data set [6], the viability at 48 h, 40 µM came to 124 ± 3.82%.
Take `O=C1COc2ccc(NC(=O)c3cccc(-c4cn(Cc5ccc(F)cc5)nn4)c3)cc2N1` [Compound 13i]: the viability at 40 µM in data set [1] came to 130 ± 1.04%; in data set [2], 142.6 ± 0.97%; in data set [3], 120 ± 2.62%; in data set [4] it was 124.6 ± 0.87%; in data set [5], 124.2 ± 1.08%. For the same molecule, the viability at 48 h, 40 µM in data set [6] came out at 117 ± 2.34%.
On to `O=C1COc2ccc(NC(=O)c3cccc(-c4cn(-c5cccc(Cl)c5)nn4)c3)cc2N1` [Compound 14d], for which the figures for the IC50 in data set [1] (setting [7]) and in data set [1] (setting [8]) were 38.7 ± 14.9 µM and 34.8 ± 1.96 µM, respectively. Moreover, the viability at 40 µM was 29.01 ± 0.13% in data set [1]; 134 ± 3.97% in data set [2]; 141.3 ± 1.17% in data set [3]; 120 ± 2.54% in data set [4]; 90.5 ± 3.81% in data set [5]. Further, the inhibition at 40 µM in data set [1] was over 50%. Moreover, in data set [6], the viability at 48 h, 40 µM was 118 ± 2.43%.
Take `O=C1COc2ccc(NC(=O)c3cccc(-c4cn(Cc5cccc(F)c5)nn4)c3)cc2N1` [Compound 13r]: the viability at 40 µM was 70 ± 2.73% in data set [1]; 74.9 ± 3.73% in data set [2]; 131 ± 2.34% in data set [3]; 122 ± 2.48% in data set [4]; 115.2 ± 0.67% in data set [5]. The viability at 48 h, 40 µM in data set [6] came out at 96.3 ± 1.01%.
Consider `O=C1COc2ccc(NC(=O)c3cccc(-c4cn(Cc5ccccc5Br)nn4)c3)cc2N1` [Compound 13q], for which the IC50 in data set [1] (setting [7]) was 29.4 ± 3.49 µM; in data set [1] (setting [8]) it was 34.9 ± 5.25 µM. In addition, the viability at 40 µM in data set [1] was 29.3 ± 1.12%; in data set [2], 77.1 ± 2.31%; in data set [3], 123 ± 1.89%; in data set [4], 97.9 ± 2.13%; in data set [5], 89.5 ± 3.23%. Further, the inhibition at 40 µM in data set [1] is over 50%. Also, the viability at 48 h, 40 µM in data set [6] stood at 114.9 ± 0.85%.
In the case of `O=C1COc2ccc(NC(=O)c3cccc(-c4cn(Cc5cc(Cl)ccc5F)nn4)c3)cc2N1` [Compound 13h], the figures for the IC50 in data set [1] (setting [7]) and in data set [1] (setting [8]) were 51.1 ± 2.54 µM and 49 ± 4.27 µM, respectively. The viability at 40 µM in data set [1] came out at 44.1 ± 2.78%; in data set [2] it was 80.4 ± 3%; in data set [3], 105 ± 2.37%; in data set [4] it was 94.2 ± 2.87%; in data set [5], 89.7 ± 5.2%. The inhibition at 40 µM in data set [1] is over 50%. Further, the viability at 48 h, 40 µM in data set [6] is 125 ± 1.84%.
`N#Cc1ccccc1Cn1cc(-c2cccc(C(=O)Nc3ccc4c(c3)NC(=O)CO4)c2)nn1` [Compound 13o]: the viability at 40 µM in data set [1] was found to be 64 ± 6.89%; in data set [2], 97.9 ± 1.02%; in data set [3], 104 ± 2.7%; in data set [4] it was 103 ± 2.66%; in data set [5], 98.4 ± 2.58%. Further, the viability at 48 h, 40 µM in data set [6] is 109 ± 1.51%.
As for `O=C1COc2ccc(NC(=O)c3cccc(-c4cn(Cc5c(F)cccc5Cl)nn4)c3)cc2N1` [Compound 13e], the half-maximal inhibitory concentration (IC50) is over 100 µM in data set [1] (setting [7]) and 64.7 ± 7.35 µM in data set [1] (setting [8]). Moreover, the viability at 40 µM in data set [1] was found to be 45.95 ± 0.35%; in data set [2], 60.9 ± 1.95%; in data set [3], 126 ± 1.82%; in data set [4], 120 ± 3.06%; in data set [5], 85.8 ± 4.65%. Besides, the inhibition at 40 µM in data set [1] was over 50%. For the same molecule, in data set [6], the viability at 48 h, 40 µM was 108 ± 1.19%.
